Test results published in patent US20050267073A1, “Triheterocyclic compounds, compositions, and methods for treating cancer or viral diseases” (priority 2004, published 2005).
Values after ≈ are worked out from the molar mass of the structure shown. Where a name gives a salt, the structure may show the parent alone. Read-outs that look alike come from different tables or passages of the source.

What was measured:
[1] = Shelf stability (precipitation) of formulation; assay type: physicochemical; conditions: 0.6 mg/mL in 9.6% polyethylene glycol 300, 0.4% polysorbate 20 and 5% dextrose
Method: (§4) To determine whether a compound is soluble in a solution, the solution was filtered on 0.2 μM polytetrafluoroethylene filters (Whatman Inc. Clifton, N.J., USA) and the compound concentration in the filtrate was measured by LC/MS and compared to the expected concentration.

[2] = system: human prostatic adenocarcinoma cancer PC3 cells; experiment: Growth of PC3 prostatic tumors in SCID mice; assay type: in vivo; conditions: 5 consecutive intravenous injections; Compound 1 Mesylate Salt 4.84 μMoles/Kg; Compound 66 4.84 or 14.51 μMoles/Kg; FIG. 6
Method: The human prostatic adenocarcinoma cancer PC3 cells were purchased from the American Type Culture Collection (ATCC). These cells were confirmed to be free of mycoplasma infection. Cells were maintained in the Roswell Park Memorial Institute (RPMI), supplemented with 10% inactivated fetal bovine serum and 1% penicillin-streptomycin-L-Glutamine, under 5% carbon dioxide (CO2) at 37° C. For prostatic-tumor induction, cells were grown lower than 70% confluence in complete medium and then collected with trypsin (Bio Whittaker, Rockland, Me., USA). Cells were then centrifuged and washed 2 times in phosphate buffer solution (PBS) and resuspended in PBS at 1.5×10^6 cells/0.1 mL. PC3 cells were then transplanted subcutaneously into the flank of SCID mice (Charles River Laboratories, Wilmington, Mass., USA), as a suspension of tumor cells (1.5×10^6 cells in 100 μL PBS), under a laminar airflow hood. Eleven (11) days later, the size of each tumor was measured. […] Relative tumor size and volume was calculated as follows: length (cm)×[width (cm)]^2/2. […]

[3] = system: H1299 human non-small cell lung cancer cells; experiment: Cell viability by cellular ATP levels (ViaLight), H1299 cells; assay type: cell-based; conditions: Homo sapiens
From the text: (§1) […]. […] […]. The total dimethyl sulfoxide on the cells was 1%. […] […].
(§2) As depicted in Table 4, these compounds were efficient in decreasing cellular ATP levels in HI 299 and C33A cancer cell lines. Nevertheless, these compounds are believed to have utility in the in vivo methods of the invention, i.e., treatment and prevention of cancer and viral infections, respectively. It should be noted that, although this cell-based assay is believed to be indicative of anti-oncogenic activity in vivo, it is not the only useful assay for evaluating the anti-oncogenic activity of Triheterocyclic Compounds of the invention. In addition, the anti-viral and other biological activity of compounds of the invention can be determined and evaluated in other assay systems known to the skilled artisan.

[4] = system: C33A cervical carcinoma cells; experiment: cells; assay type: cell-based; conditions: Homo sapiens, C-33-A, read-out: IC50 (μM) C33A, Effect on Cancer Cells Viability
From the text: as §1, §2

physchem = conditions: water
Method: as §4

[5] = biological target: T1, human placental alkaline phosphatase (Homo sapiens, UniProt P05187); experiment: Conversion of phosphate pro-drug by human placental alkaline phosphatase in vitro; assay type: in vitro ADME; conditions: 15 μM, 0.02 U/100 μL enzyme, pH 7.4; 30, 60, 120 minutes; FIG. 4
T1 construct: purchased Sigma-Aldrich Canada Ltd
Method: (§3) The conversion into biologically active drug of phosphate pro-drugs by calf intestinal alkaline phosphatase and human placental alkaline phosphatase was measured in vitro using purified enzymes. Purified calf intestinal alkaline phosphatase (Roche Diagnostic Inc. Laval, Quebec, Canada) or human placental alkaline phosphatase (Sigma-Aldrich Canada Ltd. Oakville, Ontario, Canada) was added at a concentration of 0.02 U/100 μL to a solution containing 15 μM of Compound 66, 20 mM Tris-HCl, pH 7.4 and 0.9% NaCl. The solutions were incubated for 30, 60 or 120 minutes. A solution containing 15 μM of Compound 66, 20 mM Tris-HCl, pH 7.4 and 0.9% NaCl was used as a reference (time=0 minutes). To each solution, an equal volume (100 μL) of ice-cold acetonitrile was added, and then the mixture was vortexed and transferred to glass vials. A standard concentration curve of the pro-drug and the drug was prepared in 10 mM Tris-HCl, pH 7.4, 0.45% NaCl and 50% acetonitrile. All samples were immediately analyzed by LC/MS.

[6] = system: calf intestinal alkaline phosphatase; experiment: Conversion of phosphate pro-drug by calf intestinal alkaline phosphatase in vitro; assay type: in vitro ADME; conditions: 15 μM, 0.02 U/100 μL enzyme, pH 7.4; 30, 60, 120 minutes; FIG. 5
Method: as §3

[7] = assay type: in vivo, CB17 SCID/SCID mice
Method: Treatments started on day fourteen after C33A cells transplantation. […]. The negative control group was treated with vehicle alone. […].
Observation continued for 40 days after initial tumor implantation.

[8] = NCI-H1299, H1299, cellular ATP levels as described in Example 2, read-out: IC50 (μM) H1299, Effect on Cancer Cells Viability
[9] = C33A, cellular ATP levels as described in Example 2
[10] = NCI-H1299, read-out: IC50 (μM) H1299, Effect on Cancer Cells Viability

T1 sequence (P05187 23-506): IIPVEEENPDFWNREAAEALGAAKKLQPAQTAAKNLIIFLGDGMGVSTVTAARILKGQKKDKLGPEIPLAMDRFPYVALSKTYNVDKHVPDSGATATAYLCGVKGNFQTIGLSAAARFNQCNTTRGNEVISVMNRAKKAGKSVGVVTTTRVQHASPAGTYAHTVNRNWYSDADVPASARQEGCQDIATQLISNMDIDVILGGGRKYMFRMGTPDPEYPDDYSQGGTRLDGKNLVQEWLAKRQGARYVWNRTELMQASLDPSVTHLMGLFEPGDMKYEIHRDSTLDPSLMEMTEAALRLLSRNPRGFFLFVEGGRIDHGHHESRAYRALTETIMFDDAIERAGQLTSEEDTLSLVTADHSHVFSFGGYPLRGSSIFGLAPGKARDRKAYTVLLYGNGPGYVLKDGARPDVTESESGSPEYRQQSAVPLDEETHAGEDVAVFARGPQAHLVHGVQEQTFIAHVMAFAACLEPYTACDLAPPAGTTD

Q: Which precipitation of formulation [1] does the source give for `COC1=CC(c2cc3ccccc3[nH]2)=N/C1=C\c1[nH]c(C)cc1C` [Compound 1 Mesylate Salt] here?
A: no evidence of precipitation 72 hours after its preparation

Q: What about the “growth of prostatic tumors in mice” value [2] of the same compound?
A: significantly reduce the growth of prostatic tumors

Q: Which results are given for `COC1=CC(c2cc3ccccc3[nH]2)=N/C1=C(\C)c1[nH]c(C)cc1C` [Compound 47, 2-{5-[1-(3,5-Dimethyl-1H-pyrrol-2-yl)-ethylidene]-4-methoxy-5H-pyrrol-2-yl)-1H-indole]?
A: IC50 [3, 8]: 9.65 µM; IC50 [4, 9]: 8.28 µM

Q: For `COC1=CC(c2[nH]c3ccccc3c2C(=O)NCCCO)=N/C1=C\c1[nH]c(C)cc1C` [Compound 48, 2-[5-(3,5-Dimethyl-1H-pyrrol-2-ylmethylene)-4-methoxy-5H-pyrrol-2-yl]-1H-indole-3-carboxylic acid (3-hydroxy-propyl)-amide], which IC50 [3, 8] is on record?
A: 50 µM

Q: And the IC50 [4, 9]?
A: 11.1 µM

Q: Which IC50 [3, 8] does the source give for `COC1=CC(c2cc3ccccc3n2C(=O)OC(C)(C)C)=N/C1=C\c1[nH]c(C)cc1C` [Compound 49, 2-[5-(3,5-Dimethyl-1H-pyrrol-2-ylmethylene)-4-methoxy-5H-pyrrol-2-yl]-indole-1-carboxylic acid tert-butyl ester] here?
A: 3 µM

Q: What about the IC50 [4, 9] of the same compound?
A: 2 µM

Q: Which IC50 [3, 8] does the source give for `Cc1cc(C)c(/C=C2\N=C(c3cc4ccccc4[nH]3)C=C2O)[nH]1` [Compound 50, 2-(3,5-Dimethyl-1H-pyrrol-2-ylmethylene)-5-(1H-indol-2-yl)-2H-pyrrol-3-ol] here?
A: 1.21 µM

Q: And the IC50 [4, 9]?
A: 0.509 µM

Q: For `COc1cccc(COC2=CC(c3cc4ccccc4[nH]3)=N/C2=C\c2[nH]c(C)cc2C)c1` [Compound 51, 2-[5-(3,5-Dimethyl-1H-pyrrol-2-ylmethylene)-4-(3-methoxy-benzyloxy)-5H-pyrrol-2-yl]-1H-indole], which IC50 [3, 8] is on record?
A: 0.202 µM

Q: And the IC50 [4, 9]?
A: 0.165 µM

Q: Which IC50 [3, 8] does the source give for `COC1=CC(c2cc3ccccc3n2C(=O)Nc2ccc(N(C)C)cc2)=N/C1=C\c1[nH]c(C)cc1C` [Compound 52, 2-[5-(3,5-Dimethyl-1H-pyrrol-2-ylmethylene)-4-methoxy-5H-pyrrol-2-yl]-indole-1-carboxylic acid (4-dimethylamino-phenyl)-amide] here?
A: 1.04 µM

Q: What about the IC50 [4, 9] of the same compound?
A: 1.11 µM

Q: Which IC50 [3, 10] does the source give for `CCOC(=O)COC1=CC(c2cc3ccccc3[nH]2)=N/C1=C\c1[nH]c(C)cc1C` [Compound 53, [2-(3,5-Dimethyl-1H-pyrrol-2-ylmethylene)-5-(1H-indol-2-yl)-2H-pyrrol-3-yloxy]-acetic acid ethyl ester] here?
A: 10.6 µM

Q: What about the IC50 [4] of the same compound?
A: 10.2 µM

Q: For `COC1=CC(c2cc3ccccc3n2C(=O)Nc2ccc(OCc3ccccc3)cc2)=N/C1=C\c1[nH]c(C)cc1C` [Compound 54, 2-[5-(3,5-Dimethyl-1H-pyrrol-2-ylmethylene)-4-methoxy-5H-pyrrol-2-yl]-indole-1-carboxylic acid (4-benzyloxy-phenyl)-amide], which IC50 [3, 8] is on record?
A: 0.187 µM

Q: And the IC50 [4, 9]?
A: 0.145 µM

Q: What does the source list for `COC1=CC(c2cc3ccccc3n2C(=O)c2ccc(Br)cc2)=N/C1=C/c1[nH]c(C)cc1C` [Compound 55, (4-Bromo-phenyl)-{2-[5-(3,5-dimethyl-1H-pyrrol-2-ylmethylene)-4-methoxy-5H-pyrrol-2-yl]-indol-1-yl}-methanone]?
A: IC50 [3, 8]: 0.173 µM; IC50 [4, 9]: 0.173 µM

Q: For `Cc1cc(C)c(/C=C2\N=C(c3cc4ccc(O)cc4[nH]3)C=C2OC(C)C)[nH]1` [Compound 56, 2-[5-(3,5-Dimethyl-1H-pyrrol-2-ylmethylene)-4-isopropoxy-5H-pyrrol-2-yl]-1H-indol-6-ol], which IC50 [3, 8] is on record?
A: 5.96 µM

Q: And the IC50 [4, 9]?
A: 2.54 µM

Q: Which IC50 [3, 8] does the source give for `Cc1cc(C)c(/C=C2\N=C(c3cc4c(O)cccc4[nH]3)C=C2OC(C)C)[nH]1` [Compound 57, 2-[5-(3,5-Dimethyl-1H-pyrrol-2-ylmethylene)-4-isopropoxy-5H-pyrrol-2-yl]-1H-indol-4-ol] here?
A: 5.9 µM

Q: What about the IC50 [4, 9] of the same compound?
A: 3.75 µM

Q: Which IC50 [3, 8] does the source give for `COC1=CC(c2cc3ccccc3n2Cc2ccc(O)cc2)=N/C1=C\c1[nH]c(C)cc1C` [Compound 58, 4-{2-(5-(3,5-Dimethyl-1H-pyrrol-2-ylmethylene)-4-methoxy-5H-pyrrol-2-yl]-indol-1-ylmethyl}-phenol] here?
A: 1.97 µM

Q: What about the IC50 [4, 9] of the same compound?
A: 1.32 µM

Q: For `COC1=CC(c2cc3c(O)cccc3[nH]2)=N/C1=C\c1[nH]c(C)cc1C` [Compound 59, 2-[5-(3,5-Dimethyl-1H-pyrrol-2-ylmethylene)-4-methoxy-5H-pyrrol-2-yl]-1H-indol-4-ol], which IC50 [3, 8] is on record?
A: 5.84 µM

Q: What about the IC50 [4, 9] of the same compound?
A: 5.6 µM

Q: Which results are given for `COC(=O)CCc1c(C)[nH]c(/C=C2\N=C(c3cc4ccccc4[nH]3)C=C2OC)c1C` [Compound 63, 3-{5-[5-(1H-Indol-2-yl)-3-methoxy-pyrrol-2-ylidenemethyl]-2,4-dimethyl-1H-pyrrol-3-yI}-propionic acid methyl ester]?
A: IC50 [3, 10]: 0.753 µM; IC50 [4]: 0.548 µM

Q: What does the source list for `COC1=CC(c2cc3ccccc3n2COC(=O)C(C)(C)C)=N/C1=C\c1[nH]c(C)cc1C` [Compound 64, 2,2-Dimethyl-propionic acid 2-[5-(3,5-dimethyl-1H-pyrrol-2-ylmethylene)-4-methoxy-5H-pyrrol-2-yl]-indol-1-ylmethyl ester]?
A: IC50 [3, 8]: 13.3 µM; IC50 [4, 9]: 14.2 µM

Q: Which IC50 [3, 8] does the source give for `COC1=CC(c2cc3ccccc3n2CCOS(=O)(=O)O)=N/C1=C\c1[nH]c(C)cc1C` [Compound 65, Sodium salt of Sulfuric acid mono-(2-{2-[5-(3,5-dimethyl-1H-pyrrol-2-ylmethylene)-4-methoxy-5H-pyrrol-2-yl]-indol-1-yl}-ethyl) ester] here?
A: 7.89 µM

Q: What about the IC50 [4, 9] of the same compound?
A: 5.97 µM

Q: For `COC1=CC(c2cc3ccccc3n2C(=O)CC(C)(C)c2c(C)cccc2OP(=O)(O)O)=N/C1=C/c1[nH]c(C)cc1C` [Compound 66], which solubility (physchem) is on record?
A: 10000 µg/mL (≈ 17 mM)

Q: And the “conversion of pro-drug into Compound 1” value [5]?
A: convert a fraction of the pro-drug

Q: And the “growth of prostatic tumors in mice” value [2]?
A: significantly reduce the growth of prostatic tumors

Q: What about the “conversion of pro-drug into Compound 1” value [6] of the same compound?
A: convert a fraction of the pro-drug

Q: With `N.N.[Cl][Pt][Cl]` [cisplatin, reference compound] as the compound, how does the deaths ([7]; cisplatin 4 mg/kg IP, days 29 and 32) read?
A: Two mice died

Q: And the weight loss ([7]; day 29, cisplatin 4 mg/kg IP once every 3 days for five times)?
A: 28%
